The values below come from patent US12649750B2, “Macrocyclic compounds, compositions, and methods of using thereof” (Sionna Therapeutics Inc., priority 2022, dated 2026).

One test has as its target T1, NBD1 (Homo sapiens, UniProt P13569).
T1 construct: Purified recombinant NBD1 was produced using previously described methods; made in house
Kind of test: Aggregation analysis using differential static light scattering (DSLS), thermal stability of NBD1 (ΔTagg). In kind it is binding. The following applies: ΔTagg versus DMSO control, NBD1 0.2 mg/ml. A digest of the protocol:
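NBD1 0.2 mg/ml, S200 buffer (50 mM Tris-HCl, 150 mM NaCl, 5 mM MgCl2, 2 mM ATP, 2 mM DTT, pH7.6) + 1% glycerol; cpd in DMSO; oil overlay. Ramp 25→70° C. at 1° C./min, DSLS images every 0.5° C. ΔTagg = Tagg (inflection) − mean DMSO Tagg.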

A further test concerns the target T2, CFTR (Homo sapiens, UniProt P13569, DEL508-508).
T2 construct: Primary human bronchial epithelial cells from a ΔF508 homozygous CF donor; host or cells: primary human bronchial epithelial cells (CF-HBE), ΔF508 homozygous donor
Kind of test: TECC24 AUC fold over DMSO @10 μM, CFTR-mediated transepithelial chloride transport in CF-HBE cells. In kind it is cell-based. The following applies: test agent AUC divided by DMSO vehicle AUC, primary CF-HBE cells, ΔF508 homozygous donor, 48 hours incubation. An outline of the steps:
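ΔF508-homozygous primary bronchial epithelial cells incubated 48 h at 36.5° C with compound (10 μM) in IL-13-containing medium, then TECC24 current-clamp recording in pH 7.4 Hepes saline with benzamil 10 μM, forskolin 10 μM, then CFTR inhibitor-172 20 μM. Equivalent Cl− current AUC between forskolin and inhibitor, expressed as fold over DMSO.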

T2 sequence (P13569 with tags, fused parts or gaps DEL508-508): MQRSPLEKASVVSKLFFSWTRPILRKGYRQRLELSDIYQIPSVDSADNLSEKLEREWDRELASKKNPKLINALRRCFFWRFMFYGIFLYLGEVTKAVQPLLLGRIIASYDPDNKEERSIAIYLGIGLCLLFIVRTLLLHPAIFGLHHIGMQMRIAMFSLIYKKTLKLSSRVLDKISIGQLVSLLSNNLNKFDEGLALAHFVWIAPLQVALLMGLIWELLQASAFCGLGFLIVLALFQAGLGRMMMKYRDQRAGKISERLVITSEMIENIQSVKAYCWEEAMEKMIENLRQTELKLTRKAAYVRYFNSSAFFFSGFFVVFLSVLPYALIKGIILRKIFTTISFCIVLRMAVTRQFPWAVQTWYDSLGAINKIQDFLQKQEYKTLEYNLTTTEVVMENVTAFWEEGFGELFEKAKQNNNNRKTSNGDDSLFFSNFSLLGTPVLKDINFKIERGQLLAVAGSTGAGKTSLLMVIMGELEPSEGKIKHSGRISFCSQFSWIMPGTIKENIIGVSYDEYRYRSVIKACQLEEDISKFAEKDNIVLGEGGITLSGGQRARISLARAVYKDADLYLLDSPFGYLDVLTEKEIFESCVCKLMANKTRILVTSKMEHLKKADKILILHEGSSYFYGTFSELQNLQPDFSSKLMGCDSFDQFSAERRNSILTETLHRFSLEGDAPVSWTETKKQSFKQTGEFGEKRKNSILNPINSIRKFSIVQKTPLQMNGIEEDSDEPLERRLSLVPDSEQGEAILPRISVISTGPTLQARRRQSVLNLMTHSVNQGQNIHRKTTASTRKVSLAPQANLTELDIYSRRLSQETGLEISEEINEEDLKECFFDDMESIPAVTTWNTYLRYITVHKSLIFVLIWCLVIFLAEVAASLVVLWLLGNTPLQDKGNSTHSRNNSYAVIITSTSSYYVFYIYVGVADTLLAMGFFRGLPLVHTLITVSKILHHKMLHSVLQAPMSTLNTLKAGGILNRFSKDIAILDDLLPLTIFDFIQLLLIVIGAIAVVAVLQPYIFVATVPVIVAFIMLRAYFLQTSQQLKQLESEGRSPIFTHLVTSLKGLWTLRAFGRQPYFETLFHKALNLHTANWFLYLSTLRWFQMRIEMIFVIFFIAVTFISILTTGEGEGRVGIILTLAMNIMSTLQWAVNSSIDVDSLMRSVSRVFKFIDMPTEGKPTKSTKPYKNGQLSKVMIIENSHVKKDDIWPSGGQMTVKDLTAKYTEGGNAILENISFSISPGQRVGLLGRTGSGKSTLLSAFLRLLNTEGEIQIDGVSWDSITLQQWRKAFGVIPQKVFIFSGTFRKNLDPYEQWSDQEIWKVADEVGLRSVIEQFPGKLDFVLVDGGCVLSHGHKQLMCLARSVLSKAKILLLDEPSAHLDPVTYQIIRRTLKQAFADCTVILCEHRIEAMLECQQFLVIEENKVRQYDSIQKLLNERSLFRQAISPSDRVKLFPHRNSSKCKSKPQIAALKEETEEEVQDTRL
T1 sequence (P13569 423-646 limits assumed): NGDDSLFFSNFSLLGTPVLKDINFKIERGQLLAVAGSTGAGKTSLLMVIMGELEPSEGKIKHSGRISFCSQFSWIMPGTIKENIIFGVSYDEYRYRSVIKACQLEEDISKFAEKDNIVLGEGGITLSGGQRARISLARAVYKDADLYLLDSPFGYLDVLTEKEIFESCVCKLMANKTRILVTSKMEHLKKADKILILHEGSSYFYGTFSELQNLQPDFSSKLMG

For the molecule `Cn1nc2nc1-c1cc(ccc1F)Oc1c(F)cc3[nH]ccc3c1CCS(=O)(=O)CC(C)(C)CCCC2(C)c1cccc(CC2CC(=O)N(O)C2=O)c1` (single isomer, unassigned) [Compound 195B, 3-[[3-(22,28-difluoro-3,6,10,10-tetramethyl-12,12-dioxo-24-oxa-12λ6-thia-3,4,19,30-tetrazapentacyclo[23.3.1.12,5.015,23.016,20]triaconta-1(29),2(30),4,15,17,20,22,25,27-nonaen-6-yl)phenyl]methyl]-1-hydroxy-pyrrolidine-2,5-dione], the “DSLS 3D (100 μM ΔT)” value at NBD1 is “C (a value greater than 10 °C and less than or equal to 25 °C is marked “C”)”. Also, the “TECC (AUC, 10 μM)” value on CFTR was “C (a value between 20 and 80 is marked “C”)”.

In the case of `CC(CC(=O)O)c1cccc([C@@]2(C)CCCC(C)(C)CS(=O)(=O)CCc3c(c(F)cc4[nH]ccc34)[S+]([O-])c3ccc(F)c(c3)-c3nc2nn3C)c1` (mixture of isomers) [Compound 217B, 3-[3-[(6R)-22,28-difluoro-3,6,10,10-tetramethyl-12,12,24-trioxo-12λ6,24λ4-dithia-3,4,19,30-tetrazapentacyclo[23.3.1.12,5.015,23.016,20]triaconta-1(29),2(30),4,15,17,20,22,25,27-nonaen-6-yl]phenyl]butanoic Acid], the “DSLS 3D (100 μM ΔT)” value at NBD1 was “C (a value greater than 10 °C and less than or equal to 25 °C is marked “C”)”. Besides, the “TECC (AUC, 10 μM)” value at CFTR was “C (a value between 20 and 80 is marked “C”)”.

Regarding `Cn1nc2nc1-c1cc(ccn1)Sc1c(F)cc3[nH]ccc3c1CCS(=O)(=O)CC(C)(C)CCC[C@]2(C)c1cccc(CC(C)(C)C(=O)O)c1` [Compound 273, 3-[3-[(6R)-22-Fluoro-3,6,10,10-tetramethyl-12,12-dioxo-12λ6,24-dithia-3,4,19,28,30-pentazapentacyclo[23.3.1.12,5.015,23.016,20]triaconta-1(29),2(30),4,15,17,20,22,25,27-nonaen-6-yl]phenyl]-2,2-dimethyl-propanoic Acid], the “DSLS 3D (100 μM ΔT)” value on NBD1 is “C (a value greater than 10 °C and less than or equal to 25 °C is marked “C”)”. Further, the “TECC (AUC, 10 μM)” value at CFTR was “B (a value between 12-20 is marked “B”)”.

On to `[2H]C([2H])([2H])C1(c2cccc(CCC(=O)O)c2)CCCC(C([2H])([2H])[2H])(C([2H])([2H])[2H])CS(=O)(=O)CCc2c(c(F)cc3[nH]ccc23)Oc2ccc(F)c(c2)-c2nc1nn2C` (single isomer, unassigned) [Compound 98A, 3-[3-[22,28-difluoro-3-methyl-12,12-dioxo-6,10,10-tris(trideuteriomethyl)-24-oxa-12lambda6-thia-3,4,19,30-tetrazapentacyclo-[23.3.1.12,5.015,23.016,20]triaconta-1(29),2(30),4,15,17,20,22,25,27-nonaen-6-yl]phenyl]propanoic acid], for which the “DSLS 3D (100 μM ΔT)” value on NBD1 is “C (a value greater than 10 °C and less than or equal to 25 °C is marked “C”)”. Further, the “TECC (AUC, 10 μM)” value on CFTR is “B (a value between 12-20 is marked “B”)”.

In the case of `CC1(C)CCCC(c2cccc(CCC(=O)O)c2)n2ccc(n2)-c2cc(ccc2F)Oc2c(F)cc3[nH]cnc3c2CCS(=O)(=O)C1` (stereo not shown) [Compound 57, 3-[3-(22,28-Difluoro-10,10-dimethyl-12,12-dioxo-24-oxa-12λ6-thia-5,17,19,30-tetrazapentacyclo[23.3.1.12,5.015,23.016,20]triaconta-1(29),2(30),3,15,17,20,22,25,27-nonaen-6-yl)phenyl]propanoic Acid], the “DSLS 3D (100 μM ΔT)” value on NBD1 is “B (a value above 5 °C and less than or equal to 10 °C is marked “B”)”. The “TECC (AUC, 10 μM)” value on CFTR was “C (a value between 20 and 80 is marked “C”)”.

Take `CC(Cc1cccc(C2(CNCC(F)F)CCCC(C)(C)CS(=O)(=O)CCc3c(c(F)cc4[nH]ccc34)Oc3ccc(F)c(c3)-c3nc2nn3C)c1)C(=O)O` (single isomer, unassigned) [Compound 137B, 3-[3-[6-[(2,2-difluoroethylamino)methyl]-22,28-difluoro-3,10,10-trimethyl-12,12-dioxo-24-oxa-12λ6-thia-3,4,19,30-tetrazapentacyclo[23.3.1.12,5.015,23.016,20]triaconta-1(29),2(30),4,15,17,20,22,25,27-nonaen-6-yl]phenyl]-2-methyl-propanoic Acid]: the “DSLS 3D (100 μM ΔT)” value at NBD1 was “B (a value above 5 °C and less than or equal to 10 °C is marked “B”)”. The “TECC (AUC, 10 μM)” value at CFTR is “A (a TECC value less than 12 is marked “A”)”.

On to `CC1(C)CS(=O)(=O)Cc2c(c(F)cc3[nH]ccc23)Oc2ccc(F)c(c2)-c2ncc([nH]2)C(C)(c2cccc(CCC(=O)O)c2)CCCO1` (stereo not shown) [Compound 48, 3-[3-(22,28-Difluoro-6,11,11-trimethyl-13,13-dioxo-10,24-dioxa-13λ6-thia-3,19,30-triazapentacyclo[23.3.1.12,5.015,23.016,20]triaconta-1(29),2,4,15,17,20,22,25,27-nonaen-6-yl)phenyl]propanoic Acid], for which the “DSLS 3D (100 μM ΔT)” value on NBD1 is “C (a value greater than 10 °C and less than or equal to 25 °C is marked “C”)”. Besides, the “TECC (AUC, 10 μM)” value on CFTR was “C (a value between 20 and 80 is marked “C”)”.

Turning to `Cn1nc2nc1-c1cc(ccn1)[S+]([O-])c1c(F)cc3[nH]ccc3c1CCS(=O)(=O)CC(C)(C)CCC[C@]2(C)c1cccc(CCC(=O)O)c1F` (single isomer, unassigned) [Compound 260A], the “DSLS 3D (100 μM ΔT)” value on NBD1 was “C (a value greater than 10 °C and less than or equal to 25 °C is marked “C”)”. Further, the “TECC (AUC, 10 μM)” value on CFTR was “C (a value between 20 and 80 is marked “C”)”.

For the molecule `Cn1nc2nc1-c1cc(ccc1F)Oc1c(F)cc3[nH]ccc3c1CCS(=O)(=O)CC1(CCCC2(C)c2cccc(CCC(=O)O)c2)CC1` (single isomer, unassigned) [Compound 12A, 3-[3-(22,28-difluoro-3,6-dimethyl-12,12-dioxo-spiro[24-oxa-12lambda6-thia-3,4,19,30-tetrazapentacyclo[23.3.1.12,5.015,23.016,20]triaconta-1(29),2(30),4,15,17,20,22,25,27-nonaene-10,1′-cyclopropane]-6-yl)phenyl]propanoic Acid], the “DSLS 3D (100 μM ΔT)” value at NBD1 is “C (a value greater than 10 °C and less than or equal to 25 °C is marked “C”)”. The “TECC (AUC, 10 μM)” value on CFTR is listed as “B (a value between 12-20 is marked “B”)”.

On to `COC(=O)[C@H](C)Cc1csc(C2(C)CCCC(C)(C)CS(=O)(=O)CCc3c(c(F)cc4[nH]ccc34)Oc3ccc(F)c(c3)-c3nc2nn3C)c1` (stereo partly drawn) [Compound 193, Methyl (2R)-3-[5-(22,28-difluoro-3,6,10,10-tetramethyl-12,12-dioxo-24-oxa-12λ6-thia-3,4,19,30-tetrazapentacyclo[23.3.1.12,5.015,23.016,20]triaconta-1(29),2(30),4,15,17,20,22,25,27-nonaen-6-yl)-3-thienyl]-2-methyl-propanoate], for which the “DSLS 3D (100 μM ΔT)” value at NBD1 is “B (a value above 5 °C and less than or equal to 10 °C is marked “B”)”. Further, the “TECC (AUC, 10 μM)” value at CFTR was “C (a value between 20 and 80 is marked “C”)”.

Regarding `C[C@H](Cc1cccc([C@@]2(C)CCCC(C)(C)CS(=O)(=O)CCc3c(ccc4[nH]ccc34)Oc3ccc(F)c(c3)-c3nc2nn3C)c1)C(=O)O` [Compound 190, (2R)-3-[3-[(6R)-28-fluoro-3,6,10,10-tetramethyl-12,12-dioxo-24-oxa-12λ6-thia-3,4,19,30-tetrazapentacyclo[23.3.1.12,5.015,23.016,20]triaconta-1(29),2(30),4,15,17,20,22,25,27-nonaen-6-yl]phenyl]-2-methyl-propanoic Acid], at NBD1, the “DSLS 3D (100 μM ΔT)” value is “C (a value greater than 10 °C and less than or equal to 25 °C is marked “C”)”. Moreover, at CFTR, the “TECC (AUC, 10 μM)” value is recorded as “B (a value between 12-20 is marked “B”)”.

`CC1(C)CS(=O)(=O)CCc2c(c(F)cc3[nH]ccc23)Oc2ccc(F)c(c2)-c2ccn(n2)C(c2cccc(CCC(=O)O)c2)CCO1` (single isomer, unassigned) [Compound 87A, 3-[3-(22,28-difluoro-10,10-dimethyl-12,12-dioxo-9,24-dioxa-12lambda6-thia-5,19,30-triazapentacyclo[23.3.1.12,5.015,23.016,20]-triaconta-1(29),2(30),3,15,17,20,22,25,27-nonaen-6-yl)phenyl]propanoic acid]: the “DSLS 3D (100 μM ΔT)” value on NBD1 was “B (a value above 5 °C and less than or equal to 10 °C is marked “B”)”. The “TECC (AUC, 10 μM)” value at CFTR was “A (a TECC value less than 12 is marked “A”)”.

`C[C@@H](Cc1cccc([C@@]2(C)CCCC(C)(C)CS(=O)(=O)CCc3c(c(F)c(F)c4[nH]ccc34)Sc3ccnc(c3)-c3nc2nn3C)c1)C(=O)O` [Compound 268, (2S)-3-[3-[(6R)-21,22-Difluoro-3,6,10,10-tetramethyl-12,12-dioxo-12λ6,24-dithia-3,4,19,28,30-pentazapentacyclo[23.3.1.12,5.015,23.016,20]triaconta-1(29),2(30),4,15,17,20,22,25,27-nonaen-6-yl]phenyl]-2-methyl-propanoic Acid]: on NBD1, the “DSLS 3D (100 μM ΔT)” value is “C (a value greater than 10 °C and less than or equal to 25 °C is marked “C”)”. Besides, at CFTR, the “TECC (AUC, 10 μM)” value was “B (a value between 12-20 is marked “B”)”.

Take `Cn1nc2nc1-c1cc(ccn1)[S+]([O-])c1c(F)cc3[nH]ccc3c1CCS(=O)(=O)CC(C)(C)CCC[C@]2(C)c1cccc(CCC(=O)O)c1` (single isomer, unassigned) [Compound 224]: the “DSLS 3D (100 μM ΔT)” value on NBD1 is “C (a value greater than 10 °C and less than or equal to 25 °C is marked “C”)”. The “TECC (AUC, 10 μM)” value on CFTR is “C (a value between 20 and 80 is marked “C”)”.
